According to patent US9980943B2, “Methods of treating muscular dystrophy” (BOARD OF REGENTS OF THE NEVADA SYSTEM OF HIGHER EDUCATION, …, priority 2013, dated 2018):
Read-outs that look alike come from different tables or passages of the source.

Test system: α7 integrin (LacZ reporter in α7LacZ+/− myoblasts)
Assay: qHTS of the LOPAC library and MLSMR (online screen, α7LacZ+/− myoblasts)
Conditions: for activation at 0.307 µM / activation at 1.53 µM / activation at 7.66 µM / activation at 38.3 µM / Emax / EC50: Mus musculus, Myoblast; for activation at 0.307 µM: read-out: Activity at 0.307 uM [%] **; for activation at 1.53 µM: read-out: Activity at 1.530 uM [%] **; for activation at 7.66 µM: read-out: Activity at 7.660 uM [%] **; for activation at 38.3 µM: read-out: Activity at 38.30uM [%] **; for EC50: read-out: Fit LogAC50 (converted)
[1] = 48 h, read-out: Fit Infinite Activity [%]

SMILES	activation at 0.307 µM (48 h) [%]	activation at 1.53 µM (48 h) [%]	activation at 7.66 µM (48 h) [%]	activation at 38.3 µM (48 h) [%]	Emax [1] [%]	EC50 [nM]	Emax (read-out: Max Response [%]) [%]	Curve Description
COC(=O)C1=C(C)N=C(C)/C(=C(/O)OC)C1c1ccccc1OCc1c(C)no[n+]1[O-] (stereo not drawn) [Compound 12]	12.3	36.5	84.6	100	102	2820		
O=C(NCCc1ccccc1)C1CCC(=O)N1C1CCCC1 (stereo not drawn) [Compound 104]	-6.49	-11.7	27.3	127	128	10000	127	
CCOC(=O)c1sc(=N)n(-c2ccc(OC)cc2)c1C [Compound 26]	-25.4	4.59	41.9	56.1	59.6	2000		
COc1ccc(-n2c(C)c(C(C)=O)c3cc(OC(C)=O)ccc32)cc1 [Compound 59]	0	-6.19	48.5	184	185	10000	184	
Cc1nn(C(C)(C)C)c(C)c1/C=N/OC(=O)Nc1ccc(Cl)c(Cl)c1 [Compound 32]	-28.1	-9.46	51	59.8	60.2	2820		Complete
CC(=O)c1cccc(NC(=O)C(=O)Nc2cccc3ccccc23)c1 [Compound 197]	5.25	15.7	40.8	66.9	84.7		66.9	
Cn1c(=O)c2c(nc(Sc3ncnn3CC(=O)NC3CCCCC3)n2C)n(C)c1=O [Compound 201]	-21.5	-17.1	8.09	69.8	74.9		69.8	
